The subject of the experiment is 11βhsd2 cardiac-specific transgenic mice. In words: Eplerenone treatment of 11βhsd2 cardiac-specific transgenic mice, echocardiography. As to conditions: male transgenic mice, chow containing eplerenone approx. 200 mg/kg/day from 4 weeks of age. Format: in vivo, mouse. The method, then: Starting at 4 weeks of age male transgenic mice were supplied with either chow containing eplerenone (approximate dose of 200 mg/kg/day) to eat or normal chow.
Echocardiograms were acquired using a Sonos 5500 echocardiographic system equipped with a 15-MHz linear-array transducer (Agilent, Andover, Mass.). Images were obtained from mice lightly anesthetized with 1-2% isoflurane (AErrane; Baxter, Inc., Deerfield, Ill.) lying in the left lateral decubitus position. Care was taken to maintain adequate contact while avoiding excessive pressure on the chest wall. Two-dimensional parasternal long and short-axis images of the left ventricle were obtained. Two-dimensional targeted M-mode tracings were recorded from the parasternal short-axis view at the level of the papillary muscles at a sweep speed of 150 mm/s. All echocardiograms were recorded digitally on a rewritable magneto-optical disk. Measurements and calculations used are as follows: Left Ventricular End diastolic (EDV) and systolic (ESV) volumes were calculated via the method of discs from direct measurement systolic (LVAs) and diastolic (LVAd) areas. Ejection Fraction (EF) was calculated from systolic and diastolic volumes with the following formula: EF=(EDV−ESV)/EDV×100. […] Heart rate (HR) was calculated by measuring the R-R interval in M-mode and using the formula: HR=60(sec/min)/R-R interval(sec/beat). […]

For the compound `COC(=O)[C@@H]1CC2=CC(=O)CC[C@]2(C)[C@@]23O[C@@H]2C[C@@]2(C)[C@@H](CC[C@@]24CCC(=O)O4)[C@H]13` [eplerenone], under “2.5 months of treatment”, the “development of left ventricular dysfunction and heart failure” value is reported as “significantly attenuated”. The myocardial function entry (after 2.5 months of treatment, versus normal chow) is “significantly improved”.
